Measurements reported in patent US11000033B2, “Ketone or oxime compound, and herbicide” (NISSAN CHEMICAL CORPORATION, priority 2014, dated 2021).

Assays:
Format in all cases: in vivo
Lolium multiflorum Lam. = assay: Test Example 4: herbicidal effect by soil treatment (symbol K); conditions: 320 g/ha
Procedure, shortened: (§1)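 Seeds were sown in sterilized diluvial soil, covered with about 1.5 cm of soil, and the soil surface was sprayed with a water-diluted emulsion of the compound at a predetermined rate. Plants grew in a greenhouse at 25° C. to 30° C.; effects were scored visually 3 weeks after application.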

Apera spica-venti [1] = assay: Test Example 5: herbicidal effect by foliage application, plastic box (symbol L); conditions: 320 g/ha, 3 weeks after application
Procedure, shortened: (§2)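 Seeds were sown in sterilized diluvial soil, covered with about 1.5 cm of soil and grown 14 days in a greenhouse at 25° C. to 30° C. An emulsifiable formulation diluted in water to a set rate was sprayed over foliage, and injury was scored 3 weeks later.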

[2] = tested on: Echinochloa oryzacola Vasing.; assay: Test Example 2: herbicidal activity, application during weed generation in submerged conditions (symbol A); conditions: Table 23; application herbicide amount 320 g/ha; grade 0-5 by criteria of Test Example 1
Procedure, shortened: (§3)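 Submerged alluvial soil (4 cm) sown with mixed seed; greenhouse 25–30° C. 1–2 leaf: diluted emulsion onto water surface, preset dose. Visual score, 3 wk.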

Abutilon theophrasti [3] = assay: Test Example 4: herbicidal effect by soil treatment (symbol M); conditions: 320 g/ha
Procedure, shortened: as §1

[4] = tested on: Echinochloa crus-galli var. crus-galli; assay: Test Example 3: herbicidal effect by foliage application, Wagner pot (symbol H); conditions: application herbicide amount 320 g/ha
Procedure, shortened: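 Steps: fill pot with alluvial soil; add water to 0.1–0.5 cm depth; sow weed and rice seed; grow 14 days at 25–30 °C; spray diluted emulsion over the leaves; rate effect after 3 weeks.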

Setaria viridis = assay: Test Example 4: herbicidal effect by soil treatment (symbol G); conditions: 320 g/ha
Procedure, shortened: as §1

Apera spica-venti [5] = assay: Test Example 4: herbicidal effect by soil treatment (symbol L); conditions: 320 g/ha
Procedure, shortened: as §1

beet = assay: Test Example 4: effect on crop by soil treatment (symbol f); conditions: 320 g/ha
Procedure, shortened: (§4)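 Seeds were sown in spots on sterilized diluvial soil in a plastic box and covered with about 1.5 cm of soil. Plants were then grown in a greenhouse at 25° C. to 30° C.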

Abutilon theophrasti [6] = assay: Test Example 5: herbicidal effect by foliage application, plastic box (symbol M); conditions: 320 g/ha, 3 weeks after application
Procedure, shortened: as §2

Digitaria ciliaris = assay: Test Example 4: herbicidal effect by soil treatment (symbol F); conditions: 320 g/ha
Procedure, shortened: as §1

soybean = assay: Test Example 4: effect on crop by soil treatment (symbol d); conditions: 320 g/ha
Procedure, shortened: as §4

Stellaria media = assay: Test Example 5: herbicidal effect by foliage application, plastic box (symbol P); conditions: 320 g/ha, 3 weeks after application
Procedure, shortened: as §2

Monochoria vaginalis = assay: Test Example 2: herbicidal activity, application during weed generation in submerged conditions (symbol C); conditions: Table 23; application herbicide amount 320 g/ha; grade 0-5 by criteria of Test Example 1
Procedure, shortened: as §3

Avena fatua = assay: Test Example 5: herbicidal effect by foliage application, plastic box (symbol I); conditions: 320 g/ha, 3 weeks after application
Procedure, shortened: as §2

rice plant = assay: Test Example 5: effect on crop by foliage application, plastic box (symbol b); conditions: 320 g/ha, 3 weeks after application
Procedure, shortened: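 In a plastic box 7 cm deep filled with sterilized diluvial soil, seeds of crops and weeds such as Digitaria ciliaris, Avena fatua and Amaranthus retroflexus are sown in spots and covered with about 1.5 cm of soil before greenhouse growth at 25–30° C.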

Veronica persica = assay: Test Example 5: herbicidal effect by foliage application, plastic box (symbol R); conditions: 320 g/ha, 3 weeks after application
Procedure, shortened: as §2

Chenopodium album [7] = assay: Test Example 4: herbicidal effect by soil treatment (symbol O); conditions: 320 g/ha
Procedure, shortened: as §1

Galium spurium = assay: Test Example 4: herbicidal effect by soil treatment (symbol Q); conditions: 320 g/ha
Procedure, shortened: as §1

Chenopodium album [8] = assay: Test Example 5: herbicidal effect by foliage application, plastic box (symbol O); conditions: 320 g/ha, 3 weeks after application
Procedure, shortened: as §2

Row | Structure (SMILES) | K: Lolium multiflorum Lam., herbicidal effect grade (Lolium multiflorum Lam.) | L: Apera spica-venti, herbicidal effect (criteria 0-5) (Apera spica-venti [1]) | Herbicidal effect grade, A: Echinochloa oryzacola Vasing. [2] | M: Abutilon theophrasti, herbicidal effect grade (Abutilon theophrasti [3]) | herbicidal effect on H (Echinochloa crus-galli var. crus-galli), grade 0-5 [4] | G: Setaria viridis, herbicidal effect grade (Setaria viridis) | L: Apera spica-venti, herbicidal effect grade (Apera spica-venti [5]) | f: beet, effect grade on crop (beet) | M: Abutilon theophrasti, herbicidal effect (criteria 0-5) (Abutilon theophrasti [6]) | F: Digitaria ciliaris, herbicidal effect grade (Digitaria ciliaris) | d: soybean, effect grade on crop (soybean) | P: Stellaria media, herbicidal effect (criteria 0-5) (Stellaria media) | Herbicidal effect grade, C: Monochoria vaginalis (Monochoria vaginalis) | I: Avena fatua, herbicidal effect (criteria 0-5) (Avena fatua) | b: directly sowed rice plant, effect on crop (criteria 0-5) (rice plant) | R: Veronica persica, herbicidal effect (criteria 0-5) (Veronica persica) | O: Chenopodium album, herbicidal effect grade (Chenopodium album [7]) | Q: Galium spurium, herbicidal effect grade (Galium spurium) | O: Chenopodium album, herbicidal effect (criteria 0-5) (Chenopodium album [8])
1 | CON=C(C)CC1CC(OC(=O)c2cnoc2C2CC2)=C(c2c(C)cc(C)cc2C)C1=O (stereo not shown) [1-103] | 5 (Herbicidal ratio of 90% or more (almost completely withered)) | 5 (Herbicidal ratio of 90% or more (almost completely withered)) | 5 (Herbicidal ratio of 90% or more (almost completely withered)) | 5 (Herbicidal ratio of 90% or more (almost completely withered)) | 5 (Herbicidal ratio of 90% or more (almost completely withered)) | 5 (Herbicidal ratio of 90% or more (almost completely withered)) | 4 (Herbicidal ratio of 70% or higher and lower than 90%) | 0 (Herbicidal ratio of 5% or lower (almost no effect)) | 4 (Herbicidal ratio of 70% or higher and lower than 90%) | 5 (Herbicidal ratio of 90% or more (almost completely withered)) | 1 (Herbicidal ratio of 5% or higher and lower than 20%) | 2 (Herbicidal ratio of 20% or higher and lower than 40%) | 0 (Herbicidal ratio of 5% or lower (almost no effect)) | 5 (Herbicidal ratio of 90% or more (almost completely withered)) | 5 (Herbicidal ratio of 90% or more (almost completely withered)) | 3 (Herbicidal ratio of 40% or higher and lower than 70%) | 0 (Herbicidal ratio of 5% or lower (almost no effect)) | 0 (Herbicidal ratio of 5% or lower (almost no effect)) | 2 (Herbicidal ratio of 20% or higher and lower than 40%)
2 | CON=C(C)CON=C(C)CC1CC(O)=C(c2c(C)cc(C)cc2C)C1=O (stereo not shown) [1-105] | 5 (Herbicidal ratio of 90% or more (almost completely withered)) | 5 (Herbicidal ratio of 90% or more (almost completely withered)) | 5 (Herbicidal ratio of 90% or more (almost completely withered)) | 1 (Herbicidal ratio of 5% or higher and lower than 20%) | 5 (Herbicidal ratio of 90% or more (almost completely withered)) | 5 (Herbicidal ratio of 90% or more (almost completely withered)) | 5 (Herbicidal ratio of 90% or more (almost completely withered)) | 0 (Herbicidal ratio of 5% or lower (almost no effect)) | 1 (Herbicidal ratio of 5% or higher and lower than 20%) | 5 (Herbicidal ratio of 90% or more (almost completely withered)) | 0 (Herbicidal ratio of 5% or lower (almost no effect)) | 1 (Herbicidal ratio of 5% or higher and lower than 20%) | 3 (Herbicidal ratio of 40% or higher and lower than 70%) | 5 (Herbicidal ratio of 90% or more (almost completely withered)) | 5 (Herbicidal ratio of 90% or more (almost completely withered)) | 3 (Herbicidal ratio of 40% or higher and lower than 70%) | 0 (Herbicidal ratio of 5% or lower (almost no effect)) | 0 (Herbicidal ratio of 5% or lower (almost no effect)) | 2 (Herbicidal ratio of 20% or higher and lower than 40%)
3 | CC(CC1CC(O)=C(c2c(C)cc(C)cc2C)C1=O)=NOC1CCCC1 (stereo not shown) [1-106] | 5 (Herbicidal ratio of 90% or more (almost completely withered)) | 5 (Herbicidal ratio of 90% or more (almost completely withered)) | 5 (Herbicidal ratio of 90% or more (almost completely withered)) | 0 (Herbicidal ratio of 5% or lower (almost no effect)) | 5 (Herbicidal ratio of 90% or more (almost completely withered)) | 5 (Herbicidal ratio of 90% or more (almost completely withered)) | 5 (Herbicidal ratio of 90% or more (almost completely withered)) | 0 (Herbicidal ratio of 5% or lower (almost no effect)) | 1 (Herbicidal ratio of 5% or higher and lower than 20%) | 5 (Herbicidal ratio of 90% or more (almost completely withered)) | 0 (Herbicidal ratio of 5% or lower (almost no effect)) | 2 (Herbicidal ratio of 20% or higher and lower than 40%) | 0 (Herbicidal ratio of 5% or lower (almost no effect)) | 5 (Herbicidal ratio of 90% or more (almost completely withered)) | 5 (Herbicidal ratio of 90% or more (almost completely withered)) | 1 (Herbicidal ratio of 5% or higher and lower than 20%) | 0 (Herbicidal ratio of 5% or lower (almost no effect)) | 0 (Herbicidal ratio of 5% or lower (almost no effect)) | 2 (Herbicidal ratio of 20% or higher and lower than 40%)
4 | CC(CC1CC(O)=C(c2c(C)cc(C)cc2C)C1=O)=NOCC1CC1(F)F (stereo not shown) [1-109] | 5 (Herbicidal ratio of 90% or more (almost completely withered)) | 5 (Herbicidal ratio of 90% or more (almost completely withered)) | 5 (Herbicidal ratio of 90% or more (almost completely withered)) | 4 (Herbicidal ratio of 70% or higher and lower than 90%) | 5 (Herbicidal ratio of 90% or more (almost completely withered)) | 5 (Herbicidal ratio of 90% or more (almost completely withered)) | 5 (Herbicidal ratio of 90% or more (almost completely withered)) | 0 (Herbicidal ratio of 5% or lower (almost no effect)) | 3 (Herbicidal ratio of 40% or higher and lower than 70%) | 5 (Herbicidal ratio of 90% or more (almost completely withered)) | 0 (Herbicidal ratio of 5% or lower (almost no effect)) | 3 (Herbicidal ratio of 40% or higher and lower than 70%) | 2 (Herbicidal ratio of 20% or higher and lower than 40%) | 5 (Herbicidal ratio of 90% or more (almost completely withered)) | 5 (Herbicidal ratio of 90% or more (almost completely withered)) | 3 (Herbicidal ratio of 40% or higher and lower than 70%) | 0 (Herbicidal ratio of 5% or lower (almost no effect)) | 0 (Herbicidal ratio of 5% or lower (almost no effect)) | 3 (Herbicidal ratio of 40% or higher and lower than 70%)
